Measured values taken from US11192900B2, “Substituted 1,6-dihydropyridinones and 1,2-dihydroisoquinolinones as bet inhibitors” (NUVATION BIO INC., priority 2018, dated 2021).

Key:
[1] = system: 22Rv1 human prostate carcinoma cell line; assay: Cell viability assay (resazurin); assay type: cell-based; details: 22Rv1, resazurin, 72 hrs
Protocol: (§1) The effects of test compounds were also studied in the 22Rv1 human prostate carcinoma and MDA-MB-231 human breast adenocarcinoma cell lines. The cells were harvested during the logarithmic growth period and counted. Cells were seeded at a count of 3000 cells (22Rv1) or 5000 cells (MDA-MB-231) per well/100 μl in a 96-well plate. After seeding, cells were incubated at 37° C., 5% CO2 for 24 hr. Cells were treated with test compounds at 8 concentrations within a desired concentration range (e.g. 5 nM-10 μM) for generation of dose response curves by preparing serial dilutions of the test compound in DMSO which were further diluted with culture medium and then added to each well. The plate was further incubated for another 72 hrs (22Rv1) or 96 hrs (MDA-MB-231) in humidified incubator at 37° C. and 5% CO2. The assay was terminated by addition of resazurin (# R7017, Sigma). The plate was incubated for 4 hr at 37° C., 5% CO2 and fluorescence was measured using excitation and emission wavelengths of 535 and 590 nm, respectively. Cell viability data were plotted using GraphPad Prism (GraphPad Software, Inc., San Diego, Calif.). In addition, a nonlinear regression model with a sigmoidal dose response and variable slope within GraphPad Prism was used to calculate the IC50 value of individual test compounds.

[2] = system: MDA-MB-231 human breast adenocarcinoma cell line; assay: Cell viability assay (resazurin); assay type: cell-based; details: MDA-MB-231, resazurin, 96 hrs
Protocol: as §1

c-Myc = assay: Measurement of c-Myc suppression after washoff (Western blot); assay type: cell-based, human; details: MV4-11, 2 μM for 2 hr, washed, further 6 hr
Protocol: MV4-11 cells were incubated with 2 μM of JQ1, mivebresib or a test compound for 2 hr. The cells were then washed twice with fresh culture medium and further cultured for another 6 hr. Cells were extracted with SDS sample buffers and then subjected to Western blot analysis to measure c-Myc. Compounds 2, 3, 12, 17, 409, 411 and 412 were tested in these assays.

Q: For `C=CS(=O)(=O)Nc1ccc(Oc2ccc(F)cc2F)c(-c2cc(NC)c(=O)n(C)c2)c1` [Compound 3, N-(4-(2,4-difluorophenoxy)-3-(1-methyl-5-(methylamino)-6-oxo-1,6-dihydropyridin-3-yl)phenyl)ethenesulfonamide], which IC50 [1] is on record?
A: 58 nM

Q: And the IC50 [2]?
A: 82 nM

Q: What about the “c-Myc suppression activity after washoff” value (c-Myc) of the same molecule?
A: sustained c-Myc suppression activity
